Where “and” joins values, the source holds several entries; their conditions need not be identical. Equal values may be shown once. Entries after “also recorded” stand apart in the source; their conditions may differ.
Tests used:
[1] = tested on: Pseudomonas aeruginosa (ATCC27853); experiment: Neutropenic lung infection model in mice, aerosol treatment (Example 23); assay type: in vivo, BALB/c mice; details: for Mean ± SD (Log10 CFU/g lung) / Log10 CFU/g lung: 10% aerosol, 40 min, 24 h PI; for Log10 CFU/g lung: individual mice
Procedure: Neutropenic, BALB/c female mice, all of which were from 6 to 8 weeks of age, were infected intranasally with Pseudomonas aeruginosa (ATCC27853). Twenty-four hours post infection; animals were treated intra-nasally by nebulization with Nu-8 (10% nebulized for twenty minutes, twice). At two, four and six hours post treatment, animals were terminated; lung tissues were collected to determine the bacterial load.
The mice were separated into cohorts in accordance with Table 11.
On day −4 (four days before the date of infection), each mouse was dosed with a single intraperitoneal injection of cyclophosphamide equivalent to 150 mg/kg and returned to its cage. On day −1 (one day before infection) each mouse received a dose equivalent to 100 mg/kg of cyclophosphamide.
On day −1, an aliquot from glycerol stocks of P. aeruginosa (ATCC27853) was thawed, inoculated into fresh Casein Soybean Digest Broth (CSDB) and incubated overnight at 37 C.
On the day of infection (Day 0), the overnight culture was centrifuged and the cells were pelleted and resuspended in sterile normal saline to obtain approximately 10^9 CFU/ml P. aeruginosa, which was used for infection. The inoculum was serially diluted ten-fold in sterile CSDB broth and 0.05 ml of six dilutions was plated onto CSD Agar plates to determine the viable count (CFU/ml) of inoculum.
Animals were divided into different groups as specified in the experimental design (TABLE 11). Infections were conducted in a biological safety cabinet, with appropriate personnel protection. Mice were placed into an induction chamber and anesthesia was induced by exposing the animals to 3%-5% Isoflurane in an oxygen flow set at approximately 1 liter per minute (LPM). Once the animals were in a sufficiently deep plane of anesthesia, they were removed and infected. Infection was done by instilling 0.02 ml (containing ˜1×10^9 CFU/ml) intra-nasally. 10 μl was instilled into each nostril of the anesthetized animal (˜2×10^7 CFU/animal). A gentle shaking/mixing of inoculum between two animals was followed for uniform distribution.
The vehicle used for the test compound was saline (0.9% NaCl adjusted to pH 3.5 with citric acid). To make 10% solution, 15 g Nu-8 was weighed and dissolved in 145 ml of the saline and the pH of the solution was adjusted to 3.5 with citric acid (0.1 M) in a final volume of 150 ml.
Treatment was initiated twenty four hours post infection. Test formulations were administered by aerosol route with nose only apparatus connected to a nebulizer (Omron Ne-C28 Compressor Nebulizer with a volume capacity of 15 ml, Particle size 3 μm, nebulization rate: 0.5 ml/min, and Aerosol output rate: 0.09 ml/min. At the given aerosol output rate of 0.09 ml/min, a total of 6 animals at the port, each animal will receive 15 μl/min. In 40 min, a total of 60 mg in 600 μl will be delivered to each animal). The formulation prepared previously was placed into the nebulizer fluid cup; animals were placed in the nose only apparatus and the entire system was placed inside a Class II Biosafety Cabinet. Animals received nebulization for 20 min, followed by a 30-minute rest and then an additional 20-minute exposure at the same dose concentration (the flow rate and percentage of test material available at the inhalation port was 16% of the initial concentration in the nebulizer if the test compound is in solution).
Groups of animals were euthanized at 2, 4 and 6 hours post treatment, as specified in experimental design, by an overdose of CO2 in an appropriate exposure chamber.
The euthanized animals were dipped into 70% ethanol for surface decontamination. Lungs were aseptically excised, weighed, placed in a 2 ml centrifuge tube containing 1 ml of sterile CSDB broth, and homogenized (Omni Tip (220THB handheld)). Serial ten-fold dilutions of the lung homogenates were prepared in sterile CSDB broth and 0.05 ml of four dilutions for each lung was plated onto CSDA agar plates. […]

[2] = tested on: Streptococcus pneumoniae (PRSP); experiment: MIC at pH 3.5, CLSI, Mueller-Hinton broth; assay type: cell-based
[3] = tested on: wild type E. coli (ATCC 25922); experiment: Bacterial cytological profiling at pH 4, 5.5, 7 (Example 7), E. coli; assay type: cell-based; details: pH 5.5 and 7
Procedure: This bacterial cytological profiling (BCP) investigation uses methods and materials described previously by Nonejuie, P., Burkart, M., Poglianoa, K., Pogiano, J. (2013). Bacterial cytological profiling rapidly identifies the cellular pathways targeted by antibacterial molecules. Proc. Natl. Acad. Sci. U.S.A. 110(40):16169-16174. doi: 10.1073/pnas.1311066110.
For viable cell counts, cells are grown to OD600≈0.4 and diluted 1:1 into buffered or unbuffered media containing various compound concentrations. Samples are then collected and serially diluted (1:10) on a 96 well plate. Five microliters from each well are spotted on LB plates, incubated at 30° C., and viable cells are counted the next day.
Samples are collected at 10, 30, 120, and 240 min of exposure for viable cell count and imaging. For imaging, E. coli and S. aureus 200 μL of treated cells per time point are stained with 0.8 μg/mL FM4-64, 1.5 μg/mL DAPI, and 0.4 μM SYTOXGreen (Molecular Probes/Invitrogen). P. aeruginosa samples are stained 0.4 μM SYTOX Green, 28 μg/mL DAPI, and 1 μg/mL FM 4-64. Cells are transferred to an agarose pad (20% LB, 1% agarose) for imaging.
For Nu-3 and Nu-8 stocks (at pH 4, 5.5 and 7), stock concentration is 500 mg/mL. For pH 4, the stocks are prepared by dissolving Nu-3 in 25 mM citrate buffer and Nu-8 in 350 mM citric acid. […]

[4] = tested on: Acinetobacter baumannii (ATCC 19606); experiment: Clinical signs in the Acinetobacter baumannii lung infection model (Example 25); assay type: in vivo, BALB/c mice; details: treated groups vs control mice
Source text: There was a >3 Log10) CFU/g lung decrease following treatment for 5 days when compared to the vehicle on day 1.

E. coli = experiment: MIC in lysogeny broth (LB) at pH 4; assay type: cell-based
Procedure: (§1) The MICs are also determined using lysogeny broth (LB) at pH 4 as the growth medium. Under these conditions, Nu-8 is active against E. coli and P. aeruginosa with MICs of 54 and 27 mg/mL, respectively.

P. aeruginosa = experiment: MIC in lysogeny broth (LB) at pH 4; assay type: cell-based
Procedure: as §1

Q: Which results are given for `CCCCOP(=O)(O)OC[C@H]1O[C@@H](n2ccc(N)nc2=O)C[C@@H]1OP(=O)(O)OCCCC` [Nu-8, sodium ((2R,3S,5R)-5-(4-amino-2-oxopyrimidin-1(2H)-yl)-3-((butoxyoxidophosphor-yl)oxy)tetrahydrofuran-2-yl)methyl butyl phosphate]?
A: Mean ± SD (Log10 CFU/g lung) ([1]; 2 h post end of treatment): 4.92 ± 0.19 Log10 CFU/g lung; Log10 CFU/g lung ([1]; 2 h post end of treatment): 4.89 Log10 CFU/g lung and 4.76 Log10 CFU/g lung and 4.94 Log10 CFU/g lung and 4.98 Log10 CFU/g lung and 5.24 Log10 CFU/g lung and 4.70 Log10 CFU/g lung; Mean ± SD (Log10 CFU/g lung) ([1]; 4 h post end of treatment): 4.82 ± 0.26 Log10 CFU/g lung; Log10 CFU/g lung ([1]; 4 h post end of treatment): 4.51 Log10 CFU/g lung and 5.20 Log10 CFU/g lung and 5.02 Log10 CFU/g lung and 4.64 Log10 CFU/g lung (2×) and 4.88 Log10 CFU/g lung; Mean ± SD (Log10 CFU/g lung) ([1]; 6 h post end of treatment): 4.68 ± 0.26 Log10 CFU/g lung; Log10 CFU/g lung ([1]; 6 h post end of treatment): 4.58 Log10 CFU/g lung and 4.53 Log10 CFU/g lung and 5.16 Log10 CFU/g lung and 4.41 Log10 CFU/g lung and 4.60 Log10 CFU/g lung and 4.78 Log10 CFU/g lung; antibacterial activity vs vehicle control at 2 h and 4 h ([1]; 10%, 2, 4 and 6 hours post administration, p<0.05): significant antibacterial activity; animal condition during the study period ([1]; all groups): no abnormalities were detected; Nu-8 MIC (mg/mL) at pH 3.5 [2]: 9.38-18.75 mg/mL; effect on cell permeability, cell viability and growth [3]: alters E. coli cell permeability and reduces cell viability and growth; piloerection, loss of grooming and respiratory symptoms [4]: decreased piloerection, nasal discharge and gasping symptoms; also recorded: a marked decrease was observed in treated groups; MIC (E. coli): 54 mg/mL; MIC (P. aeruginosa): 27 mg/mL

Reference: patent publication US12030908B2, “Antimicrobial compounds, compositions, and uses thereof” (Lakewood Amedex, Inc., priority 2017, dated 2024)
